Data published in ChEMBL document CHEMBL5137070, “N-2-(Phenylamino) Benzamide Derivatives as Dual Inhibitors of COX-2 and Topo I Deter Gastrointestinal Cancers via Targeting Inflammation and Tumor Progression” (J Med Chem, 2022).
Activity calls are given as the source filed them. The rule behind the calls is not given here.

Assays:
HGC-27 [1] = test: Anti-migration activity against human HGC-27 cells assessed as decrease in cell migration rate at 0.37 uM for 48 hrs by crystalline violet staining based assay; format: functional
RKO [2] = test: Antiproliferative activity against human RKO cells assessed as clone formation at 0.04 to 3.3 uM incubated for 4 days by crystal violet staining based analysis; format: functional, cell-based; details: dose 0.04-3.3 µM, time 4.0 day
CT26.WT [3] = test: Anti-tumor activity against mouse CT26.WT xenografted in BALB/c mouse assessed as decrease in tumor size at 100 mg/kg, ip twice daily and measured upto 14 days relative to control; format: functional, organism-based; details: time <= 14.0 day
HGC-27 [4] = test: Induction of apoptosis in human HGC-27 cells assessed as increase in Bax/Bcl-2 ratio expression at 1.1 to 10 uM incubated for 24 hrs by western blot assay; format: functional, cell-based; details: dose 1.1-10 µM
HGC-27 [5] = test: Induction of pro-apoptosis in human HGC-27 assessed as DNA breakdown by analyzing DNA ladder at 1.1 to 10 uM for 36 hrs by ethidium bromide staining based agarose gel electrophoresis; format: functional, cell-based; details: dose 1.1-10 µM
RKO [6] = test: Induction of apoptosis in human RKO cells assessed as increase in Bax/Bcl-2 ratio expression at 1.1 to 10 uM incubated for 24 hrs by western blot assay; format: functional, cell-based; details: dose 1.1-10 µM
RKO [7] = test: Induction of apoptosis in human RKO cells assessed as increase in caspase-3 activity at 3.3 uM incubated for 36 hrs by flow cytometry (Rvb= 1.08%); format: functional
RKO [8] = test: Effect on cell morphology in human RKO cells assessed as lose of adherence at 10 uM incubated for 48 hrs by giemsa staining based microscopic analysis; format: functional
RKO [9] = test: Induction of apoptosis in human RKO cells at 1.1 to 10 uM for 24 hrs by Annexin V-FITC/PI staining based flow cytometry; format: functional, cell-based; details: dose 1.1-10 µM
RKO [10] = test: Induction of apoptosis in human RKO cells assessed as increase in cleaved caspase-3 expression at 1.1 to 10 uM incubated for 24 hrs by western blot assay; format: functional, cell-based; details: dose 1.1-10 µM
HGC-27 [11] = test: Induction of apoptosis in human HGC-27 cells assessed as increase in caspase-3 activity at 10 uM incubated for 36 hrs by flow cytometry (Rvb= 9.39%); format: functional
[12] = Toxicity in BALB/c mouse xenografted with mouse CT26.WT assessed as pathological changes in liver at 100 mg/kg, ip twice daily and measured after 14 days by hematoxylin and eosin staining based microscopic analysis; format: organism-based; details: in vivo, 336 h, time 14 day
[13] = Toxicity in BALB/c mouse xenografted with mouse CT26.WT assessed as pathological changes in lung at 100 mg/kg, ip twice daily and measured after 14 days by hematoxylin and eosin staining based microscopic analysis; format: organism-based; details: in vivo, 336 h, time 14 day
[14] = AUC (0 to t) in Sprague-Dawley rat at 100 mg/kg, ip and measured upto 8 hrs by LC-MS/MS analysis; format: ADME, organism-based; set-up: dose 100 mg/kg, time < 8 hrs, route ip; details: in vivo
HGC-27 [15] = test: Induction of apoptosis in human HGC-27 cells assessed as increase in cytochrome C level at 1.1 to 10 uM incubated for 24 hrs by western blot assay; format: functional, cell-based; details: dose 1.1-10 µM
RKO [16] = test: Antiproliferative activity against human RKO cells assessed as cell viability at <= 0.41 uM for 48 hrs by MTT assay; format: functional; details: up to 0.41 µM
CT26.WT [17] = test: Anti-tumor activity against mouse CT26.WT xenografted in BALB/c mouse assessed as increase in apoptosis at 100 mg/kg, ip twice daily and measured after 14 days by TUNEL staining based assay; format: functional, organism-based; details: time 14.0 day
[18] = Toxicity in BALB/c mouse xenografted with mouse CT26.WT assessed as pathological changes in heart at 100 mg/kg, ip twice daily and measured after 14 days by hematoxylin and eosin staining based microscopic analysis; format: organism-based; details: in vivo, 336 h, time 14 day
HGC-27 [19] = test: Induction of apoptosis in human HGC-27 cells assessed as increase in cleaved caspase-9 expression at 1.1 to 10 uM incubated for 24 hrs by western blot assay; format: functional, cell-based; details: dose 1.1-10 µM
HGC-27 [20] = test: Induction of apoptosis in human HGC-27 cells assessed as increase in cleaved caspase-3 expression at 1.1 to 10 uM incubated for 24 hrs by western blot assay; format: functional, cell-based; details: dose 1.1-10 µM
[21] = Tmax in Sprague-Dawley rat at 100 mg/kg, ip and measured upto 8 hrs by LC-MS/MS analysis; format: ADME, organism-based; details: in vivo
[22] = AUC (0 to infinity) in Sprague-Dawley rat at 100 mg/kg, ip and measured upto 8 hrs by LC-MS/MS analysis; format: ADME, organism-based; set-up: dose 100 mg/kg, time < 8 hrs, route ip; details: in vivo
[23] = Acute toxicity in Kunming mouse assessed as lethal dose at 100 mg/kg,ip and measured upto 14 days; format: organism-based; details: in vivo, time < 14 day
RKO [24] = test: Induction of apoptosis in human RKO cells assessed as increase in cleaved caspase-9 expression at 1.1 to 10 uM incubated for 24 hrs by western blot assay; format: functional, cell-based; details: dose 1.1-10 µM
HGC-27 [25] = test: Induction of apoptosis in human HGC-27 cells at 1.1 to 10 uM for 24 hrs by Annexin V-FITC/PI staining based flow cytometry; format: functional, cell-based; details: dose 1.1-10 µM
CT26.WT [26] = test: Anti-tumor activity against mouse CT26.WT xenografted in BALB/c mouse assessed as decrease in tumor weight at 100 mg/kg, ip twice daily and measured upto 14 days relative to control; format: functional, organism-based; details: time <= 14.0 day
RKO [27] = test: Induction of cell cycle arrest in human RKO cells assessed as accumulation at G2/M phase at 3.3 to 10 uM for 24 hrs by propidium iodide staining based flow cytometry; format: functional; details: dose 3.3-10 µM
[28] = Acute toxicity in Kunming mouse assessed as behavioral changes at 100 mg/kg,ip and measured upto 14 days; format: organism-based; details: in vivo, 336 h, time < 14 day
HGC-27 [29] = test: Antiproliferative activity against human HGC-27 cells assessed as reduction in cell proliferation incubated for 48 hrs by MTT assay; format: functional, cell-based; details: HGC-27, 48 h
CT26.WT [30] = test: Antiproliferative activity against mouse CT26.WT cells assessed as cell viability at 1.23 uM for 48 hrs by MTT assay; format: functional; details: read-out: Activity
CT26.WT [31] = test: Anti-tumor activity against mouse CT26.WT xenografted in BALB/c mouse assessed as decrease in COX-2 expression level in tumor tissue at 100 mg/kg, ip twice daily and measured after 14 days by immunohistochemical analysis; format: functional, organism-based; details: time 14.0 day
HGC-27 [32] = test: Anti-metastasis activity against human HGC-27 cells assessed as reduction in MMP-9 expression level at 3.3 to 10 uM for 24 hrs by western blot analysis; format: functional, cell-based; details: dose 3.3-10 µM
RAW264.7 [33] = test: Cytotoxicity against mouse RAW264.7 cells assessed as reduction in cell viability at <=11.11 for 24 hrs by MTT assay; format: toxicity, cell-based; details: raw264.7, 24 h
[34] = Toxicity in BALB/c mouse xenografted with mouse CT26.WT assessed as pathological changes in spleen at 100 mg/kg, ip twice daily and measured after 14 days by hematoxylin and eosin staining based microscopic analysis; format: organism-based; details: in vivo, 336 h, time 14 day
HGC-27 [35] = test: Induction of apoptosis in human HGC-27 cells assessed as increase in caspase-3 activity at 1.1 to 10 uM incubated for 36 hrs by flow cytometry; format: functional, cell-based; details: dose 1.1-10 µM, DDE = dose-dependent effect
RAW264.7 [36] = test: Antiinflammatory activity in mouse RAW264.7 cells assessed as reduction in LPS-induced NF-kappaB nuclear translocation at 6.6 uM incubated for 1 hrs followed by LPS stimulation for 1 hrs by DAPI staining based immunofluorescence assay; format: functional, cell-based; details: time 2.0 hrs

In the case of `Cc1c(Cl)cccc1Nc1ccc(F)cc1C(=O)NCc1ccc(O)c(O)c1`, the Activity (HGC-27 [1]) is reported as “Active”, the Activity (RKO [2]) is reported as “Active” and the Activity (CT26.WT [3]) is reported as “Active”. The Activity (HGC-27 [4]) was “Active”, the Activity (HGC-27 [5]) was “Active” and the Activity (RKO [6]) was “Active”. For the same molecule, the Activity (RKO [7]) was 55.24%, the Activity (RKO [8]) was “Active” and the Activity (RKO [9]) was “Active”. For the same molecule, the Activity (RKO [10]) was “Active”, the Activity (HGC-27 [11]) was 69.46% and the Activity [12] was “Non-Toxic”. The Activity [13] was “Non-Toxic”, the AUC(0-t) at 8 h [14] was 18200 ng·h/mL and the Activity (HGC-27 [15]) was “Active”. The Activity (RKO [16]) was greater than 80%, the Activity (CT26.WT [17]) was “Active” and the Activity [18] was “Non-Toxic”. For the same molecule, the Activity (HGC-27 [19]) was “Active”, the Activity (HGC-27 [20]) was “Active” and the Tmax [21] was 40.2 min. For the same molecule, the AUC(0-inf) [22] was 18600 ng·h/mL, the LD50 at 336 h [23] was greater than 100 mg/kg and the Activity (RKO [24]) was “Active”. The Activity (HGC-27 [25]) was “Active”, the Activity (CT26.WT [26]) was “Active” and the Activity (RKO [27]) was “Active”. The Activity [28] was “Non-Toxic”, the IC50 (HGC-27 [29]) was 4.71 µM and the viability at 1.23 µM (CT26.WT [30]) was greater than 80%. For the same molecule, the Activity (CT26.WT [31]) was “Active”, the Activity (HGC-27 [32]) was “Active” and the Activity (RAW264.7 [33]) was greater than 80%. The Activity [34] was “Non-Toxic”, the Activity (HGC-27 [35]) was “Dde” and the Activity (RAW264.7 [36]) was “Active”.
